In PubChem BioAssay (NCI):
Several values for one entry are separate records, joined by “and”; a condition that tells them apart may be missing. Identical values can stand only once.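 The compound was tested at five concentrations on cells cultured in 96-well plates, with a 48-hour exposure period. GI50 marks 50% less growth. At the TGI there is no net growth.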

How the values were obtained:
Assay in all cases: NCI tumour cell line growth inhibition, 48 h
[1] = tested on: DLD-1 colon
[2] = tested on: MDA-N
[3] = tested on: DMS 114 small cell lung
[4] = tested on: SNB-78 CNS
[5] = tested on: BT-549 breast
[6] = tested on: KM20L2 colon
[7] = tested on: HOP-18 NSCLC
[8] = tested on: XF 498 CNS
[9] = tested on: RXF-631 renal

SMILES | TGI [1] [µM] | TGI [3] [µM] | TGI [4] [µM] | TGI [5] | TGI [6] [µM] | GI50 [5] [µM] | also measured
CCc1nc2ccc(N=Nc3c(O)ccc4ccccc34)cc2[nH]1 | 57.3 | 35.1 | 32.7 | 36.2 µM | 36.9 |  | TGI [2]: 51.5 µM
Nc1nc(/C=C\c2ccccc2)nc(N2CCN(c3ccccc3)CC2)n1 |  |  |  | > 100 µM |  | 45 | 
Cc1cc(-c2cc(O)ccc2Cl)cc2nnc(Nc3ccc(OCCN4CCCC4)cc3)nc12 |  |  |  | 3.16 µM |  | 1.45 | 
NS(=O)(=O)c1cc(C(=O)O)c(O)c2ccccc12 |  |  |  | > 100 µM |  |  | TGI [2]: > 100 µM
Clc1cccc(-c2nnc(-c3nn(-c4ccccc4)c4nc5ccccc5nc34)o2)c1 | > 100 | > 100 | > 100 |  | > 100 |  | TGI [7]: > 100 µM; TGI [8]: > 100 µM
CC(=O)NNc1nc(C)c(C(/C=C/c2ccccc2O)=N/N=C(N)N)s1 |  |  |  | > 100 µM |  |  | TGI [2]: > 100 µM
O=c1c(Cl)c(Cl)cnn1CCCl | 3.29 | 18.9 | 30.7 | 13.9 µM | 27.2 |  | TGI [8]: 11.7 µM
C=CCC(N[C@H](CO)c1ccccc1)c1cn(Cc2ccccc2Cl)c(=O)n(Cc2ccccc2Cl)c1=O (stereo partly specified) |  |  |  | 7.01 µM |  |  | 
COc1c(-c2ccccc2)nc2ccc(Oc3ccccc3)nn12 | > 100 | > 87.7 | > 100 |  | > 100 |  | TGI [7]: > 87.1 µM; TGI [8]: 66.9 µM
O=C(/C=C\c1cccc2ccccc12)c1ccc(Cl)cc1Cl | 40.8 | 30.8 | 45.5 |  | 91.8 |  | TGI [7]: 48.1 µM; TGI [9]: 74.3 µM
CC1(C)CCCC(C)(C2CCC3(C)C2C(O)CC2C4(C)CCC(O)C(C)(C)C4CCC23C)O1 (stereo unspecified) |  |  |  | > 100 µM |  |  | TGI [2]: > 100 µM
CC1CCC2CC(=O)OC([C@@H]3C(=O)O[C@@H](C4=CCCC4)C4C(C)CCC43)C12 (stereo partly specified) | > 100 | > 100 | > 100 |  | > 100 |  | TGI [7]: > 100 µM; TGI [8]: > 100 µM
COC(=O)c1oc2c(C(=O)/C=C/c3ccc(OC)cc3)c(OCCN(C)C)ccc2c1C |  |  |  | 16 µM |  | 4.88 | 
CCCCCC/C=C\CCCCCCCCCC1=C(CN2CCN(C)CC2)C(=O)C=C(OC)C1=O |  |  |  | 15.5 µM |  |  | TGI [2]: 21.1 µM
COc1ccc(S(=O)(=O)N(CC(=O)O)c2ccccc2)cc1 | > 100 |  |  |  | > 100 |  | TGI [7]: > 100 µM
O=C(Nc1ccc(Cl)c(Cl)c1)C(=O)C(C(=O)c1ccccc1-c1ccccc1)C1OC(=O)c2ccccc21 (stereo unspecified) | 30.1 | 27 | > 100 |  | 52.7 |  | TGI [9]: 37.7 µM; TGI [8]: 26.5 µM
Clc1ccccc1-c1nnc2c(Cc3ccccc3)nc3ccccc3n12 |  |  |  | > 100 µM |  | > 25.9 | 

SMILES | TGI [1] [µM] | TGI [3] [µM] | TGI [4] [µM] | TGI [5] | TGI [6] [µM] | GI50 [5] [µM] | also measured
CC(=O)C1=C(O)C=C2Oc3c(C(=O)/C=C/c4cc(Cl)cc(Cl)c4)c(O)c(C)c(O)c3[C@]2(C)C1=O |  |  |  | 0.961 µM |  | 0.395 | 
CCN(CC)CCCC(C)N/C(=C1\C(=O)NC(=O)\C1=C(/NC(C)CCCN(CC)CC)c1cccc(OC)c1)c1cccc(OC)c1 (stereo unspecified) |  |  |  | 3.82 µM |  | 1.31 | 
COC(=O)[C@@H]1Cc2c([nH]c3ccccc23)[C@H](c2ccccc2)N1 | > 100 | 84 |  |  | > 100 |  | TGI [7]: > 100 µM
CCCCCCCCCC[C@H](O)[C@H](O)CC[C@@H](O)[C@H]1CC[C@@H]([C@H]2CC[C@H](CCCCCCC[C@@H](O)CC3=C[C@H](C)OC3=O)O2)O1 |  |  |  |  |  |  | GI50 [2]: 17.5 µM; TGI [2]: 53 µM
CN(/N=C/c1ccnc2ccccc12)c1c([N+](=O)[O-])cc([N+](=O)[O-])cc1[N+](=O)[O-] | > 100 | > 100 | > 100 |  | > 100 |  | TGI [7]: > 100 µM; TGI [8]: > 100 µM
Oc1c(Cl)cc(Cl)c2ccc(Cn3cc(-c4ccc(C(F)(F)F)cc4)nn3)nc12 |  |  |  | 5.22 µM |  | 1.94 | 
COc1ccc(/C=C2/SC(Nc3nc(-c4nc(NC5=NC(=O)/C(=C\c6ccc(OC)cc6)S5)sc4C)c(C)s3)=NC2=O)cc1 |  |  |  | 22.2 µM |  | 2.23 | 
COc1ccc(OC)c(/C=N/N=C(\N)NO)c1 | > 100 | > 100 | > 100 |  |  |  | TGI [9]: > 100 µM; TGI [8]: 58.3 µM
CN(/N=C\c1ccnc2ccccc12)c1ccc([N+](=O)[O-])cc1 |  |  | > 100 |  | > 100 |  | TGI [9]: > 100 µM; TGI [8]: > 100 µM
CCCCCCCCCCCCOC1C(CNC(=O)C2OC3OC(C)(C)OC3C2NC(=O)CN2CCN(c3ccc(OC)cc3)CC2)OC2OC(C)(C)OC21 (stereo unspecified) |  |  |  | 17.4 µM |  | 6.19 | 
O=[N+]([O-])c1cc([N+](=O)[O-])c(Nn2c3ccccc3c3ccccc32)c([N+](=O)[O-])c1 |  |  |  | 7.32 µM and 1.23 µM |  | 0.278 | TGI [2]: 12.2 µM
CCN(Cc1cccc(Cl)c1)c1ccc(CO)c(Cl)c1 |  |  |  | 24.3 µM |  | 11.5 | 
COC(=O)C1=CC2C=CC(C1C(=O)OC)C1C(C(=O)OC)=C(C(=O)OC)C(C(=O)OC)=C(C(=O)OC)C21OC (stereo unspecified) | > 100 | > 100 | > 100 |  | > 100 |  | TGI [7]: > 100 µM; TGI [9]: > 100 µM
Cn1c2c(c3ccccc31)CCN1C(=O)CCC21 (stereo unspecified) |  |  |  |  |  |  | TGI [2]: > 10 µM
N/N=C(/Cc1nc2ccc(C(=O)c3ccccc3)cc2[nH]c1=O)C(=O)Nc1ccc([N+](=O)[O-])cc1[N+](=O)[O-] |  | > 100 | > 100 |  | > 100 |  | TGI [7]: > 100 µM; GI50 [3]: > 100 µM; GI50 [4]: > 100 µM; TGI [8]: > 100 µM
C=CCC(N[C@@H](CO)c1ccccc1)c1cn(C(=O)OCC)c2ccccc12 (stereo partly specified) |  |  |  | > 100 µM |  | 32.9 | 
CCOc1ccn(-c2ccc(F)cc2)c(=O)c1C(=O)Nc1ccc(Oc2ccnc(N)c2Cl)c(F)c1 |  |  |  | 59.2 µM |  | 13.8 | 
